Measured values reported in patent US20240002470A1, “Method for separation and/or detection and/or in vitro quantification of infectious compounds in biological material” (priority 2020, published 2024).

Columns and labels:
Yeast = test: Capture from blood culture on magnetic microbeads, culture on TS agar: yeast; assay type: binding
Method: The beads, on which β2GPI and peptides derived therefrom were grafted, were used for the capture of bacteria present in human blood and highlighted by blood culture.
These blood cultures are carried out by placing a venous blood sample […] in aerobic vials of BacT/ALERT®3D type. These flasks are then incubated in an automated system at 35° C. for at least 5 days. The bottles are equipped with a colorimetric detection system with a sensor located at the base of each bottle. Carbon dioxide produced by growing bacteria changes the color of the sensor; this change in color is detected by an automated system and indicates the presence of bacterial growth: these blood cultures are said to be positive. In the BacT/ALERT®3D vials there are particles of activated carbon, which inhibit antibiotics potentially present in the blood of patients, thereby improving the detection of microorganisms. To confirm the presence of bacteria in blood cultures which have been found positive, the hospital performs a culture on blood agar. […]
To test the interaction of microbeads coated with β2GPI and the peptides derived from them, with bacteria present in the blood, 1 ml of blood culture is taken from each sample and placed in a 15 ml tube. […] The bacteria that have grown on the agar were then counted.

[1] = test system: endogenous human retrovirus antigen (HERV), envelope protein of HERV-W; test: Capture of HERV antigen from serum on ELISA-type microtiter plates; assay type: binding
Method: The desired compound is an endogenous human retrovirus antigen (HERV: human endogenous retrovirus). Their research was carried out on serum from patients with autoimmune pathologies as well as on serum from healthy donors.
The support used is a microtiter plate of the ELISA type, with 96 wells and flat bottom, sold by the company “DYNATECH”. Four samples of serum from healthy donors and four samples from patients with autoimmune disease were used.
The serum sample is diluted ten times in 50 mM Tris-HCl buffer, pH 7.6±0.05.
100 μl of this solution are placed at the bottom of each well of the microplate.
This is then incubated at +37° C. for 90 minutes. The liquid from each well is then aspirated. Then 300 to 400 μl of phosphate buffer containing 0.01 mole/I of sodium and disodium phosphates and 0.15 mole/I of sodium chloride and having a pH of 7.00±0.05 are introduced into each well.
It is left in contact with the support for 3 minutes and the buffer is aspirated; this washing operation is carried out three times.
Next, 100 μl of a specific murine monoclonal antibody solution directed against the envelope protein of the endogenous HERV-W retrovirus is added per well.
The plate is left at 37° C. for 60 minutes.
(§1) Following this incubation, the contents of the wells of the plate are aspirated. 300 to 400 μl of phosphate buffer, described above, are introduced into each well, and after a contact time of 3 minutes, the buffer is aspirated; this washing operation is carried out three times.
as §1, with “Then, 100 μL of a solution of a polyclonal antibody recognizing the murine antibodies are added per well. The plate is left at 37° C. for 60 minutes. Following” for “Following”, “six” for “three”
100 μl of a solution of o-phenylene diamine, 2HCl in a sodium citrate buffer are added per well. It is left to incubate for 30 minutes at room temperature, then the reaction is stopped by adding to each well 50 μl of 2N H2 SO4. The absorbance at 492 nm obtained at the end of the reaction is measured using a plate reader robot.
Results in the following table are expressed in P/2N, P corresponding to the average of the absorbances obtained for a given serum and N corresponding to the average of the absorbances obtained from healthy donors, multiplied by 2.

E. coli ATCC 8739 = test: Capture of E. coli ATCC 8739 on magnetic microbeads, culture and counting; assay type: binding, Escherichia coli; details: E. coli ATCC 8739 colonies from captured beads
Method: One ml of the culture of bacteria to be studied is placed in a hemolysis tube. 100 μl of buffer are added, the trade name of which is TTGB, then 20 μl of microbeads. The tube is stirred horizontally, to mix the microbeads well, and incubated at 37° C. or at room temperature (TA=22° C.) for half an hour. At the end of the incubation, the microbeads are separated from the liquid phase by means of a magnet, placed externally against the wall of the tube. The microbeads are then washed twice with LB medium and then resuspended in 1 ml of BTS culture medium (Tripticase-Soy broth) having the following formulation: […]
This culture medium is brought to a boil and then autoclaved, to make it sterile, before use. 20 μl of the microbead suspension are taken and spread in a Petri dish containing TS agar (Trypticase-Soya agar) having the following formulation: […]
The Petri dishes are incubated at +37° C. for 24 hours. The bacteria that have grown on the agar are then counted.
The used bacteria were obtained from a collection strain of Escherichia coli (E. coli), ATCC 8739. The same experiment as that described in the previous example was carried out.

[2] = serum 6s (patient with autoimmune pathology)
[3] = serum 45s (patient with autoimmune pathology)
[4] = serum 99s (patient with autoimmune pathology)
[5] = serum 100s (patient with autoimmune pathology)

Molecule	% compared to β2GPI (Yeast)	P/2N [1, 2]	P/2N [1, 3]	P/2N [1, 4]	P/2N [1, 5]	P/2N ([1]; serum DS 45s (healthy donor))	P/2N ([1]; serum DS 46s (healthy donor))	P/2N ([1]; serum DS 60s (healthy donor))	P/2N ([1]; serum DS 61s (healthy donor))	% compared to β2GPI (E. coli ATCC 8739)
H-((SSLAFWK)2-K)2-K—NH2 [Peptide P11]	89%	1.185	1.228	0.977	4.039	0.77	0.718	0.631	0.727	99%
β2GPI: plasma glycoprotein called β2-glycoprotein I, grafted on beads as the reference (protein, UniProt P02749 20-345, looked up, grafted on beads) Beta-2-glycoprotein 1: GRTCPKPDDLPFSTVVPLKTFYEPGEEITYSCKPGYVSRGGMRKFICPLTGLWPINTLKCTPRVCPFAGILENGAVRYTTFEYPNTISFSCNTGFYLNGADSAKCTEEGKWSPELPVCAPIICPPPSIPTFATLRVYKPSAGNNSLYRDTAVFECLPQHAMFGNDTITCTTHGNWTKLPECREVKCPFPSRPDNGFVNYPAKPTLYYKDKATFGCHDGYSLDGPEEIECTKLGNWSAMPSCKASCKVPVKKATVVYQGERVKIQEKFKNGMLHGDKVSFFCKNKEKKCSYTEDAQCIDGTIEVPKCFKEHSSLAFWKTDASDVKPC	100%	0.928	1.112	0.974	4.9	0.69	0.79	0.637	0.498	100%
